Activity calls are given as the source filed them. How the calls were made is not given here.

The text below walks through data of ChEMBL document CHEMBL1139128, “Structure-activity relationship analysis of a novel necroptosis inhibitor, Necrostatin-5” (Bioorg Med Chem Lett, 2007).

This assay deals with Jurkat. Description: Inhibition of TNF-alpha-induced necroptosis in FADD-deficient Jurkat T cells. It counts as functional, cell-based. Details: concentration or dose not given beside the values. Conditions: for EC50: Jurkat.

For `CSc1nc2sc3c(c2c(=O)n1-c1ccc(OCc2ccccc2)cc1)CCCC3`, where the note is “Homo sapiens”, the outcome was inactive.

`CCCCCCCCCCCCCCc1sc2nc(SC)n(-c3ccc(OC)cc3)c(=O)c2c1C`: where the note is “Homo sapiens”, the outcome was inactive.

`CSc1nc2sc3ccccc3c2c(=O)n1-c1ccc(F)cc1`: it took 3.06 µM to reach a half-maximal effect (Homo sapiens) (EC50).

As to `CCc1sc2nc(SCC#N)n(-c3ccc(F)cc3)c(=O)c2c1C`, where the note is “Homo sapiens”, the result was inactive.

On to `N#CCSc1nc2sc3c(c2c(=O)n1-c1ccc(F)cc1)CCCC3`, for which the Activity is given as 85.1%. Further, the EC50 (in general, the concentration giving half of the maximal effect) (Homo sapiens) was 0.24 µM.

In turn, `N#CCSc1nc2sc3c(c2c(=O)n1-c1ccc(Cl)cc1)CCCC3` showed an Activity of 55%. Moreover, it took 8.5 µM to reach a half-maximal effect (Homo sapiens) (EC50).

Take `C#CCSc1nc2sc(CCC)c(C)c2c(=O)n1-c1ccc(OC)cc1`: the result (Homo sapiens) was inactive.

With `C#CCSc1nc2sc3c(c2c(=O)n1-c1ccc(OC)cc1)CCCCC3`, the result (Homo sapiens) was inactive.

For the compound `CSc1nc2sc3c(c2c(=O)n1-c1ccc(C)c(C)c1)CC(C)CC3` (stereo unspecified), the outcome (Homo sapiens) was inactive.

`CSc1cccc(-n2c(SC)nc3sc4c(c3c2=O)CCCC4)c1`: the result (Homo sapiens) was inactive.

For the compound `CCc1c(C)sc2nc(SC)n(-c3ccc4c(c3)OCO4)c(=O)c12`, for the setting “Homo sapiens”, the outcome was inactive.

For the compound `CCCCCCSc1nc2sc3c(c2c(=O)n1-c1ccc(OC)cc1)CCCC3`, the outcome (Homo sapiens) was inactive.

As for `Cc1ccc(-n2c(SCC#N)nc3sc4c(c3c2=O)CCCC4)cc1`, the Activity is 48.6%. This compound displayed an EC50 (Homo sapiens) of 1.8 µM.

Consider `COc1ccc(-n2c(SCCC#N)nc3sc4c(c3c2=O)CCCC4)cc1`, for which the Activity turned out to be 70%. This compound also displayed an EC50 (Homo sapiens) of 5.28 µM.

On to `N#CCSc1nc2sc3ccccc3c2c(=O)n1-c1ccc(OC(F)(F)F)cc1`, for which the outcome (Homo sapiens) was inactive.

Compound `C#CCSc1nc2sc3c(c2c(=O)n1-c1ccc(OC)cc1)CCC3` registered an Activity of 63.4%. The EC50 (Homo sapiens) worked out at 2.49 µM.

For `COc1ccc(-n2c(SC)nc3sc4c(c3c2=O)CCCC4)cc1OC`, the Activity is 54.5%. Further, where the note is “Homo sapiens”, it took 16.7 µM to reach a half-maximal effect (EC50).

Take `COc1ccc(-n2c(SCC#N)nc3sc(C)cc3c2=O)cc1`: the outcome (Homo sapiens) was inactive.

Regarding `CSc1nc2sc3c(c2c(=O)n1-c1ccc(C)c(C)c1)CCC3`, the result (Homo sapiens) was inactive.

As to `CSc1nc2sccc2c(=O)n1-c1ccccc1`, the result (Homo sapiens) was inactive.

Regarding `CCOc1ccc(-n2c(SCC#N)nc3sc4ccccc4c3c2=O)cc1`, the outcome (Homo sapiens) was inactive.

For the compound `N#CCSc1nc2sc3c(c2c(=O)n1-c1ccc(OCc2ccccc2)cc1)CCCC3`, the outcome (Homo sapiens) was inactive.

For the compound `COc1ccc(-n2c(SCC(C)=O)nc3sc4c(c3c2=O)CCCC4)cc1`, for the setting “Homo sapiens”, the outcome was inactive.

For the compound `CCSc1nc2sc(C)c(C)c2c(=O)n1-c1ccc(OC)cc1`, for the setting “Homo sapiens”, the outcome was inactive.

For `COC(=O)CSc1nc2sc3c(c2c(=O)n1-c1ccc(OC)cc1)CCCC3`, the outcome (Homo sapiens) was inactive.

Regarding `COc1ccc(-n2c(SCc3ccc([N+](=O)[O-])cc3)nc3sc4c(c3c2=O)CCCC4)cc1`, for the setting “Homo sapiens”, the result was inactive.

In the case of `C#CCSc1nc2sc(C)c(C)c2c(=O)n1-c1ccc2c(c1)OCO2`, where the note is “Homo sapiens”, the result was inactive.

The compound `CSc1nc2sc3c(c2c(=O)n1-c1ccc(C)c(C)c1)CCCC3` registered an Activity of 38%. Besides, the EC50 (Homo sapiens) came out at 16.7 µM.

For `COc1ccc(-n2c(SCCC#N)nc3sc(C)c(C)c3c2=O)cc1`, the result (Homo sapiens) was inactive.

On to `CSc1nc2sc3c(c2c(=O)n1-c1ccc(Cl)cc1C)CCCC3`, for which the outcome (Homo sapiens) was inactive.

Consider `COc1ccc(-n2c(SCCO)nc3sc(C)c(C)c3c2=O)cc1`, for which the Activity came out at 78%. In addition, where the note is “Homo sapiens”, the EC50 amounted to 7.26 µM.

`COc1ccc(-n2c(SC)nc3sc4ccccc4c3c2=O)cc1` showed an Activity of 77%. The compound also had a 50% effective concentration (EC50) (Homo sapiens) of 0.24 µM.

On to `COc1ccc(-n2c(SC(C)=O)nc3sc4c(c3c2=O)CCCC4)cc1`, for which, under “Homo sapiens”, the outcome was inactive.

Consider `COc1ccc(-n2c(SC)nc3sc4c(c3c2=O)CCCC4)c(OC)c1`, for which, under “Homo sapiens”, the result was inactive.

As to `COc1ccc(-n2c(SCC#N)nc3sccc3c2=O)cc1`, the outcome (Homo sapiens) was inactive.

Turning to `COc1ccc(-n2c(SCC#N)nc3scc(C)c3c2=O)cc1`, the result (Homo sapiens) was inactive.

Regarding `CCOc1ccc(-n2c(SC)nc3sc4c(c3c2=O)CCC4)cc1`, the outcome (Homo sapiens) was inactive.

On to `CN(C)c1ccc(-n2c(SCC#N)nc3sc4ccccc4c3c2=O)cc1`, for which the outcome (Homo sapiens) was inactive.

On to `C#CCSc1nc2sccc2c(=O)n1-c1ccc(OC)cc1`, for which, where the note is “Homo sapiens”, the outcome was inactive.

Consider `COc1ccc(CSc2nc3sc4c(c3c(=O)n2-c2ccc(OC)cc2)CCCC4)cc1`, for which the outcome (Homo sapiens) was inactive.

For `N#CCSc1nc2sc3c(c2c(=O)n1-c1ccc(F)c(F)c1)CCCC3`, where the note is “Homo sapiens”, the outcome was inactive.

Consider `N#CCSc1nc2sc3c(c2c(=O)n1-c1cccc(Cl)c1)CCCC3`, for which the Activity amounted to 66.9%. In addition, the EC50 (Homo sapiens) is 5.1 µM.

`COc1ccc(-n2c(SCC#N)nc3sc4ccccc4c3c2=O)cc1` returned an Activity of 83.3%. This compound also had an EC50 (Homo sapiens) of 0.18 µM.

With `CSc1nc2sc(C)c(C)c2c(=O)n1-c1ccc(OCc2ccccc2)cc1`, for the setting “Homo sapiens”, the outcome was inactive.

Regarding `COc1ccc(-n2c(SCC(=O)Nc3ccccc3C(F)(F)F)nc3sc4c(c3c2=O)CCCC4)cc1`, the outcome (Homo sapiens) was inactive.

Take `COc1ccc(-n2c(SCC#N)nc3sc4c(c3c2=O)CCCC4)c(OC)c1`: the outcome (Homo sapiens) was inactive.

As to `CCOc1ccc(-n2c(SCC#N)nc3sc(C)c(C)c3c2=O)cc1`, the Activity came to 97%. Moreover, the EC50 (Homo sapiens) amounted to 7.77 µM.

Consider `COc1ccc(-n2c(SC)nc3sc4c(c3c2=O)CC(C)CC4)cc1` (stereo unspecified), for which, for the setting “Homo sapiens”, the outcome was inactive.

Turning to `CSc1nc2sc(C)c(C)c2c(=O)n1-c1ccc2c(c1)OCO2`, the Activity was determined as 67%. In addition, for the setting “Homo sapiens”, the EC50 stood at 1.11 µM.

Turning to `CCCCCCCCCCCCCCc1sc2nc(SCC#N)n(-c3ccc(OC)cc3)c(=O)c2c1C`, for the setting “Homo sapiens”, the outcome was inactive.

The compound `CSc1nc2sc3c(c2c(=O)n1-c1ccc(F)cc1)CCC3` came in with an Activity of 95%. In addition, the midpoint of the response (Homo sapiens), the EC50, lay at 3 µM.

`Cc1sc2nc(SCC#N)n(-c3ccc(OCc4ccccc4)cc3)c(=O)c2c1C`: the result (Homo sapiens) was inactive.

For `Cc1ccc(-n2c(SCC#N)nc3sc(C)c(C)c3c2=O)cc1C`, the Activity is 90.7%. Moreover, for the setting “Homo sapiens”, the EC50 is 2.79 µM.

Turning to `COc1ccc(-n2c(SCC(N)=O)nc3sc4c(c3c2=O)CCCC4)cc1`, the outcome (Homo sapiens) was inactive.

Turning to `CCc1cc2c(=O)n(-c3ccc(OC)cc3)c(SCC#N)nc2s1`, the result (Homo sapiens) was inactive.

`COc1ccc(-n2c(SCCl)nc3sc4c(c3c2=O)CCCC4)cc1` returned an Activity of 85%. Moreover, under “Homo sapiens”, the EC50 is 2.22 µM.

As for `C#CCSc1nc2sc(CC)c(C)c2c(=O)n1-c1ccc(OC)cc1`, the result (Homo sapiens) was inactive.

Regarding `COc1ccc(-n2c(SCC#N)nc3sc4c(c3c2=O)CN(C(C)C)CC4)cc1`, the outcome (Homo sapiens) was inactive.

Consider `COc1ccc(-n2c(SC)nc3sc4c(c3c2=O)CCCC4)cc1`, for which the Activity came to 71%. Further, the EC50 (Homo sapiens) amounted to 0.24 µM.

`N#CCSc1nc2sc3ccccc3c2c(=O)n1-c1ccc2c(c1)OCCO2`: the Activity was 100%. Under “Homo sapiens”, this compound showed an EC50 of 0.15 µM.

Turning to `CCCc1sc2nc(SCC#N)n(-c3ccc(OC)cc3)c(=O)c2c1C`, where the note is “Homo sapiens”, the result was inactive.

As for `CSc1nc2sc3c(c2c(=O)n1-c1ccc(Cl)c(Cl)c1)CCCC3`, the outcome (Homo sapiens) was inactive.

Regarding `CCN1CCc2sc3nc(SC)n(-c4ccccc4)c(=O)c3c2C1`, under “Homo sapiens”, the outcome was inactive.

As for `COc1ccc(-n2c(SCC#N)nc3sc4c(c3c2=O)CC(C)CC4)cc1OC` (stereo unspecified), the outcome (Homo sapiens) was inactive.

Consider `CCc1c(C)sc2nc(SC)n(-c3ccc(OC)cc3)c(=O)c12`, for which the outcome (Homo sapiens) was inactive.

As to `CCc1c(C)sc2nc(SCC#N)n(-c3ccc(OC)cc3)c(=O)c12`, the Activity came to 100%. The same compound displayed an EC50 (Homo sapiens) of 1.08 µM.

`N#CCSc1nc2sc3c(c2c(=O)n1-c1ccc2c(c1)OCCO2)CCCC3` showed an Activity of 100%. For the same compound, a half-maximal effect (Homo sapiens) (EC50) was put at 0.22 µM.

Consider `Cc1sc2nc(SCC#N)n(-c3ccc4c(c3)OCCO4)c(=O)c2c1C`, for which the Activity amounted to 100%. It took 0.25 µM to reach a half-maximal effect (Homo sapiens) (EC50).

As for `N#CCSc1nc2sc3c(c2c(=O)n1-c1ccc(OC(F)(F)F)cc1)CCCC3`, where the note is “Homo sapiens”, the outcome was inactive.

With `CCOc1ccc(-n2c(SC)nc3sc(C)c(C)c3c2=O)cc1`, the outcome (Homo sapiens) was inactive.

`COc1ccc(-n2c(SC)nc3sc(C)c(C)c3c2=O)cc1`: the outcome (Homo sapiens) was inactive.

As to `COc1ccc(-n2c(SCC(C)O)nc3sc4c(c3c2=O)CCCC4)cc1` (stereo unspecified), where the note is “Homo sapiens”, the result was inactive.

`N#CCSc1nc2sc3c(c2c(=O)n1-c1ccc2c(c1)OCCO2)CCC3` displayed an Activity of 100%. For the same compound, where the note is “Homo sapiens”, the EC50 was 0.25 µM.

Compound `CSc1ccc(-n2c(SCC#N)nc3sc4c(c3c2=O)CCCC4)cc1` came in with an Activity of 70%. For the same compound, the response (Homo sapiens) was half-maximal at 2.33 µM (EC50).

In the case of `CCSc1nc2sc3c(c2c(=O)n1-c1ccccc1)CCCCC3`, the outcome (Homo sapiens) was inactive.

Compound `CCc1sc2nc(SCC#N)n(-c3ccc(OC)cc3)c(=O)c2c1C` registered an Activity of 86.8%. Further, a half-maximal response (Homo sapiens) (EC50) required 5.26 µM.

In turn, `C#CCSc1nc2sc(C)c(C)c2c(=O)n1-c1ccc(OC)cc1` registered an Activity of 90.3%. Besides, a half-maximal effect (Homo sapiens) (EC50) was put at 4.86 µM.

Regarding `Cc1cc(Cl)ccc1-n1c(SCC#N)nc2sc3c(c2c1=O)CCCC3`, the outcome (Homo sapiens) was inactive.

`CCCc1sc2nc(SCC)n(-c3ccc(OC)cc3)c(=O)c2c1C`: the outcome (Homo sapiens) was inactive.

Regarding `Cc1sc2nc(SCC#N)n(-c3ccc(F)cc3)c(=O)c2c1C`, the Activity is listed as 87.6%. Besides, under “Homo sapiens”, the EC50 was 4.43 µM.

Compound `N#CCSc1nc2sc3ccccc3c2c(=O)n1-c1ccc2c(c1)OCO2` showed an Activity of 100%. Moreover, the midpoint of the response (Homo sapiens), the EC50, lay at 0.27 µM.

`CCCSc1nc2sc3c(c2c(=O)n1-c1ccc(OC)cc1)CCCC3`: under “Homo sapiens”, the result was inactive.

`Cc1ccc(-n2c(SCC#N)nc3sc4c(c3c2=O)CCC4)cc1C`: the outcome (Homo sapiens) was inactive.

Take `CCN1CCc2sc3nc(SCC#N)n(-c4ccc(OC)cc4)c(=O)c3c2C1`: the result (Homo sapiens) was inactive.
